In paper PMC7114147 (Antiviral Research, 2013):

How the values were obtained:
A/H1N1 (A/PR/8/34) = assay: microbe, parasite or virus in culture; assay type: cell-based, influenza A virus; details: read-out: Antiviral activity (EC50) A/PR/8/34
A/X-31 (A/H3N2) = assay type: cell-based, influenza A virus; details: read-out: Antiviral activity (EC50) A/X-31
S31N mutant A/M2 = S31N mutant A/M2 (Influenza A virus, UniProt P0DOF5, S31N); assay type: biochemical, influenza A/Udorn/72
V27A mutant A/M2 = V27A mutant A/M2 (Influenza A virus, UniProt P0DOF5, V27A); assay type: biochemical, influenza A/Udorn/72
A/PR/8/34 4 #8 cl3 = assay: microbe, parasite or virus in culture; assay type: cell-based; details: Influenza A virus, PR/8, pH 5.7, read-out: Antiviral activity (EC50), 4 #8 cl3
[1] = system: A/Virginia/ATCC3/2009 (2009 pandemic A/H1N1); assay type: cell-based, influenza A virus; details: read-out: Antiviral activity (EC50) A/2009pan
A/PR/8/34 6c #8 cl3 = assay: microbe, parasite or virus in culture; assay type: cell-based; details: Influenza A virus, PR/8, pH 5.5, read-out: Antiviral activity (EC50), 6c #8 cl3

Row | SMILES | EC50 (A/H1N1 (A/PR/8/34)) [µM] | EC50 (A/X-31 (A/H3N2)) [µM] | Activity against S31N mutant A/M2 (S31N mutant A/M2) | Activity against V27A mutant A/M2 (V27A mutant A/M2) | EC50 (A/PR/8/34 4 #8 cl3) [µM] | EC50 [1] [µM] | EC50 (A/PR/8/34 6c #8 cl3) [µM]
1 | CCC(CC)O[C@@H]1C=C(C(=O)O)C[C@H](N)[C@H]1NC(C)=O [Oseltamivir carboxylate] | 21 ± 9 | 0.11 ± 0.05 | – | – | – | – | –
2 | C1=CC2C3C4C5C=CC4C24CNCC54C13 [Compound 3, 3-azahexacyclo[7.6.0.0^1,5.0^5,12.0^6,10.0^11,15]pentadeca-7,13-diene] | – | – | inactive | inactive | – | – | –
3 | CC(N)C12CC3CC(CC(C3)C1)C2 (stereo not drawn) [Rimantadine, rimantadine] | – | 7 ± 1.7 | inactive | inactive | > 100 | ≥ 158 | > 100
4 | NC(=O)c1ncn([C@@H]2O[C@H](CO)[C@@H](O)[C@H]2O)n1 [Ribavirin] | 8.7 ± 0.7 | 8.8 ± 0.2 | – | – | 26 ± 4 | 11 ± 1 | 24 ± 3
5 | NC12CC3CC(CC(C3)C1)C2 [Amantadine, amantadine] | – | 61 ± 12 | – | – | > 250 | 137 ± 10 | > 250
6 | CC(=O)N[C@H]1[C@H]([C@H](O)[C@H](O)CO)OC(C(=O)O)=C[C@@H]1N=C(N)N [Zanamivir] | 6 ± 1.3 | 0.16 ± 0.05 | – | – | – | – | –
